Source: PMC10408569, “Recruitment of hexahydroquinoline as anticancer scaffold targeting inhibition of wild and mutants EGFR (EGFR^WT, EGFR^T790M, and EGFR^L858R)” (Journal of Enzyme Inhibition and Medicinal Chemistry, 2023)

What was measured:
Test in all cases: NCI-60 anticancer screening (SRB)
Type in all cases: cell-based
MCF7 = conditions: Homo sapiens; MCF7, breast cancer; one dose 10 μM; read-out: Growth Inhibition Percentage (GI %)
DU-145 = conditions: Homo sapiens; DU-145, prostate cancer; one dose 10 μM; read-out: Growth Inhibition Percentage (GI %)
SF-268 = conditions: Homo sapiens; SF-268, CNS cancer; one dose 10 μM; read-out: Growth Inhibition Percentage (GI %)
SN 12C = conditions: Homo sapiens, SN12C; SN 12C, renal cancer; one dose 10 μM; read-out: Growth Inhibition Percentage (GI %)
SF-539 = conditions: Homo sapiens; SF-539, CNS cancer; one dose 10 μM; read-out: Growth Inhibition Percentage (GI %)
TK-10 = conditions: Homo sapiens; TK-10, renal cancer; one dose 10 μM; read-out: Growth Inhibition Percentage (GI %)
HCT-116 = conditions: Homo sapiens; HCT-116, colon cancer; one dose 10 μM; read-out: Growth Inhibition Percentage (GI %)
NCI/ADR-RES = conditions: Homo sapiens, ovarian cancer, one dose 10 μM, read-out: Growth Inhibition Percentage (GI %)
CCRF-CEM = conditions: Homo sapiens, leukemia, one dose 10 μM, read-out: Growth Inhibition Percentage (GI %)
MDA-MB-468 = conditions: Homo sapiens; MDA-MB-468, breast cancer; one dose 10 μM; read-out: Growth Inhibition Percentage (GI %)
SF-295 = conditions: Homo sapiens; SF-295, CNS cancer; one dose 10 μM; read-out: Growth Inhibition Percentage (GI %)
BT-549 = conditions: Homo sapiens; BT-549, breast cancer; one dose 10 μM; read-out: Growth Inhibition Percentage (GI %)
LOX IMVI = conditions: Homo sapiens, melanoma, one dose 10 μM, read-out: Growth Inhibition Percentage (GI %)
RXF 393 = conditions: Homo sapiens; RXF 393, renal cancer; one dose 10 μM; read-out: Growth Inhibition Percentage (GI %)
OVCAR-5 = conditions: Homo sapiens; OVCAR-5, ovarian cancer; one dose 10 μM; read-out: Growth Inhibition Percentage (GI %)
SNB-19 = conditions: Homo sapiens; SNB-19, CNS cancer; one dose 10 μM; read-out: Growth Inhibition Percentage (GI %)
HCC-2998 = conditions: Homo sapiens; HCC-2998, colon cancer; one dose 10 μM; read-out: Growth Inhibition Percentage (GI %)
U251 = conditions: Homo sapiens, U-251; U251, CNS cancer; one dose 10 μM; read-out: Growth Inhibition Percentage (GI %)
NCI-H522 = conditions: Homo sapiens; NCI-H522, NSC lung cancer; one dose 10 μM; read-out: Growth Inhibition Percentage (GI %)
COLO 205 = conditions: Homo sapiens; COLO 205, colon cancer; one dose 10 μM; read-out: Growth Inhibition Percentage (GI %)
HS 578T = conditions: Homo sapiens; HS 578T, breast cancer; one dose 10 μM; read-out: Growth Inhibition Percentage (GI %)
OVCAR-3 = conditions: Homo sapiens; OVCAR-3, ovarian cancer; one dose 10 μM; read-out: Growth Inhibition Percentage (GI %)
UO-31 = conditions: Homo sapiens; UO-31, renal cancer; one dose 10 μM; read-out: Growth Inhibition Percentage (GI %)
ACHN = conditions: Homo sapiens, renal cancer, one dose 10 μM, read-out: Growth Inhibition Percentage (GI %)
RPMI-8226 = conditions: Homo sapiens; RPMI-8226, leukemia; one dose 10 μM; read-out: Growth Inhibition Percentage (GI %)
NCI-H322M = conditions: Homo sapiens, NSC lung cancer, one dose 10 μM, read-out: Growth Inhibition Percentage (GI %)
SK-MEL-2 = conditions: Homo sapiens; SK-MEL-2, melanoma; one dose 10 μM; read-out: Growth Inhibition Percentage (GI %)
NCI-H226 = conditions: Homo sapiens; NCI-H226, NSC lung cancer; one dose 10 μM; read-out: Growth Inhibition Percentage (GI %)

Row | Structure (SMILES) | inhibition at 10 µM (MCF7) [%] | inhibition at 10 µM (DU-145) [%] | inhibition at 10 µM (SF-268) [%] | inhibition at 10 µM (SN 12C) [%] | inhibition at 10 µM (SF-539) [%] | inhibition at 10 µM (TK-10) [%] | inhibition at 10 µM (HCT-116) [%] | inhibition at 10 µM (NCI/ADR-RES) [%] | inhibition at 10 µM (CCRF-CEM) [%] | inhibition at 10 µM (MDA-MB-468) [%] | inhibition at 10 µM (SF-295) [%] | inhibition at 10 µM (BT-549) [%] | inhibition at 10 µM (LOX IMVI) [%] | inhibition at 10 µM (RXF 393) [%] | inhibition at 10 µM (OVCAR-5) [%] | inhibition at 10 µM (SNB-19) [%] | inhibition at 10 µM (HCC-2998) [%] | inhibition at 10 µM (U251) [%] | inhibition at 10 µM (NCI-H522) [%] | inhibition at 10 µM (COLO 205) [%] | also measured
1 | CCOC(=O)C1=C(N)N(c2ccccc2)C2=C(C(=O)CC(C)(C)C2)C1c1cccnc1 (racemic) [12d] | < 10 | < 10 | < 10 | < 10 | < 10 | < 10 | < 10 | 13 | < 10 | < 10 | < 10 | < 10 | < 10 | < 10 | < 10 | < 10 | < 10 | < 10 | 15 | < 10 | inhibition at 10 µM (HS 578T): < 10%; inhibition at 10 µM (OVCAR-3): < 10%; inhibition at 10 µM (UO-31): 77%; inhibition at 10 µM (ACHN): < 10%; inhibition at 10 µM (RPMI-8226): < 10%; inhibition at 10 µM (NCI-H322M): < 10%; inhibition at 10 µM (SK-MEL-2): < 10%; inhibition at 10 µM (NCI-H226): < 10%
2 | CCOC(=O)C1=C(N)N(c2ccc(C)cc2)C2=C(C(=O)CC(C)(C)C2)C1c1cccnc1 (racemic) [12e, (±)-Ethyl 2-amino-7,7-dimethyl-1–(4-methylphenyl)-5-oxo-1-phenyl-4-(pyrdin-3-yl)-1,4,5,6,7,8-hexahydroquinoline-3-carboxylate] | < 10 | < 10 | < 10 | < 10 | < 10 | < 10 | < 10 | < 10 | < 10 | < 10 | < 10 | < 10 | < 10 | < 10 | < 10 | < 10 | < 10 | < 10 | < 10 | < 10 | inhibition at 10 µM (HS 578T): < 10%; inhibition at 10 µM (OVCAR-3): < 10%; inhibition at 10 µM (UO-31): 23%; inhibition at 10 µM (ACHN): < 10%; inhibition at 10 µM (RPMI-8226): 11%; inhibition at 10 µM (NCI-H322M): < 10%; inhibition at 10 µM (SK-MEL-2): < 10%; inhibition at 10 µM (NCI-H226): < 10%
3 | CCOC(=O)C1=C(N)N(c2ccc(Cl)cc2)C2=C(C(=O)CC(C)(C)C2)C1c1cccnc1 (racemic) [12f, (±)-Ethyl 2-amino-1–(4-chlorophenyl)-7,7-dimethyl-5-oxo-4-(pyridin-3-yl)-1,4,5,6,7,8-hexahydroquinoline-3-carboxylate] | < 10 | < 10 | < 10 | < 10 | 12 | < 10 | < 10 | 11 | < 10 | < 10 | < 10 | < 10 | 12 | < 10 | < 10 | < 10 | < 10 | < 10 | < 10 | < 10 | inhibition at 10 µM (HS 578T): 16%; inhibition at 10 µM (OVCAR-3): < 10%; inhibition at 10 µM (UO-31): 21%; inhibition at 10 µM (ACHN): < 10%; inhibition at 10 µM (RPMI-8226): 12%; inhibition at 10 µM (NCI-H322M): < 10%; inhibition at 10 µM (SK-MEL-2): < 10%; inhibition at 10 µM (NCI-H226): < 10%
